According to PubChem BioAssay (NCI):
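96-well plates; 48 h exposure; 5 concentrations. Endpoints by linear interpolation between flanking doses. Not reached: highest tested concentration assigned. GI50: concentration for 50% inhibition of growth. The concentration for full growth arrest is given as TGI.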

Key:
Experiment in all cases: DTP human tumour cell line panel, 48 h
A549 NSCLC = system: A549 NSCLC
ACHN renal = system: ACHN renal
COLO 205 colon = system: COLO 205 colon
HCC-2998 colon = system: HCC-2998 colon
HL-60(TB) leukemia = system: HL-60(TB) leukemia
HOP-62 NSCLC = system: HOP-62 NSCLC
MALME-3M melanoma = system: MALME-3M melanoma
OVCAR-8 ovarian = system: OVCAR-8 ovarian
RPMI-8226 leukemia = system: RPMI-8226 leukemia
NCI-H522 lung = system: NCI-H522 lung

Row | Structure (SMILES) | GI50 (A549 NSCLC) [µM] | TGI (A549 NSCLC) [µM] | GI50 (ACHN renal) [µM] | TGI (ACHN renal) [µM] | GI50 (COLO 205 colon) [µM] | TGI (COLO 205 colon) [µM] | GI50 (HCC-2998 colon) [µM] | TGI (HCC-2998 colon) [µM] | GI50 (HL-60(TB) leukemia) [µM] | TGI (HL-60(TB) leukemia) [µM] | GI50 (HOP-62 NSCLC) [µM] | TGI (HOP-62 NSCLC) [µM] | GI50 (MALME-3M melanoma) [µM] | TGI (MALME-3M melanoma) [µM] | GI50 (OVCAR-8 ovarian) [µM] | TGI (OVCAR-8 ovarian) [µM] | GI50 (RPMI-8226 leukemia) [µM] | TGI (RPMI-8226 leukemia) [µM] | GI50 (NCI-H522 lung) [µM] | TGI (NCI-H522 lung) [µM]
1 | COc1ccc(/C=C2\CCCC3=C2NC(C)=NC3c2ccc(OC)c(OC)c2)cc1OC (stereo not drawn) | 53.7 | > 100 | 6.74 | > 100 | 5.5 | > 100 | > 100 | > 100 | 5.84 | > 100 | 3.75 | 38.8 | 22.2 | > 100 | 4.68 | > 100 | 0.848 | 56.3 | – | –
2 | CCCCCCCCCCCCC(=O)[O-].CCCCCCCCCCCCC(=O)[O-].CCCCCCCCCCCCC(=O)[O-].CCCCCCCCCCCCC(=O)[O-].[Mo+2].[Mo+2] | 14.9 | 44.2 | 16 | 30.4 | 19.3 | 46.4 | 19.9 | 49.8 | 2.82 | 7.8 | – | – | 11.4 | 28 | 11.9 | 31.3 | 4.08 | 37 | – | –
3 | C/C1=C\CC[C@@](C)(O)[C@@H]2CC3[C@@H](OC(=O)C34CC4)[C@@H](O2)[C@H](C)CCC1 (stereo partly drawn) | 24.5 | 77.6 | 16.9 | 35.1 | 24.2 | 63.6 | 14.7 | 27.8 | 42.4 | > 100 | – | – | 13.5 | 39.3 | 18.8 | 38.1 | 30.1 | > 100 | 12.7 | 28.5
4 | O=C(O)c1c[nH]cc1C(=O)O | – | > 100 | – | – | – | > 100 | – | – | – | > 100 | – | > 100 | – | > 100 | – | > 100 | – | > 100 | – | > 100
5 | Cc1c2ccncc2c(C)c2c1[nH]c1ccc(OC(C)(C)C)cc12 | – | 13.1 | – | – | – | 3.12 | – | 3.78 | – | 3.83 | – | 9.74 | – | 3.31 | – | 9.75 | – | 5.49 | – | 5.81
6 | COc1cc(Oc2c(O)c(C)c(OC)c(C(C)=O)c2O)c(C(C)=O)c(O)c1C | – | > 100 | – | > 100 | – | > 100 | – | > 100 | – | – | – | 83.1 | – | > 100 | – | > 100 | – | – | – | 77.9
7 | Cc1cn2c(/C=N/N/C(N)=N\N)c(-c3ccc(Cl)c([N+](=O)[O-])c3)nc2s1 | – | – | 0.928 | 1.63 | – | – | – | – | 25.2 | > 50 | 4.98 | 15.9 | – | – | – | – | 4.54 | > 50 | 4.58 | 32.1
8 | O=[N+]([O-])c1ccc(CS(=O)Cc2ccccc2)cc1 (stereo not drawn) | – | > 100 | – | > 100 | – | > 100 | – | – | – | > 100 | – | > 100 | – | > 100 | – | > 100 | – | > 100 | – | > 100
9 | C=C(C)[C@@H]1CC[C@@]2(C)[C@H]1[C@H]1CCC3[C@@]4(C)CC[C@H](O)C(C)(C)[C@@H]4CC[C@@]3(C)[C@]1(C)C[C@@H]2O (stereo partly drawn) | – | > 100 | – | > 100 | – | – | – | – | – | > 100 | – | > 100 | – | > 100 | – | > 100 | – | – | – | > 100
10 | FC(F)(F)c1ccc2nc(Nc3ccc(Cl)c(Cl)c3)c(-c3ccccc3)nc2c1 | – | > 100 | – | > 100 | – | > 100 | – | > 100 | – | > 100 | – | > 100 | – | > 100 | – | > 100 | – | > 100 | – | –
11 | CC1CC2(CC[C@@H]1O)OCCO2 (stereo partly drawn) | – | > 100 | – | – | – | > 100 | – | > 100 | – | > 100 | – | > 100 | – | > 100 | – | > 100 | – | > 100 | – | > 100
12 | CC(CCCOC(c1ccccc1)(c1ccccc1)c1ccccc1)OC(=O)Nc1cc([N+](=O)[O-])cc([N+](=O)[O-])c1 (stereo not drawn) | – | > 100 | – | 93.5 | – | – | – | > 100 | – | 85.3 | – | 83.4 | – | 83.2 | – | > 100 | – | > 100 | – | 59.5
13 | Nc1nc(OCc2ccccc2)nc2[nH]ncc12 | 27.7 | > 100 | 25.5 | > 100 | 18.5 | 40.4 | – | – | – | – | 19.3 | 37.8 | – | – | > 100 | > 100 | 15.2 | 38.6 | 25.5 | > 100
14 | CCC1CN2CCc3cc(OC)c(OC)cc3C2CC1CC1c2cc(OC)c(OC)cc2CCN1C(=O)CNC(=O)OC(C)(C)C (stereo not drawn) | – | 62.6 | – | 54.4 | – | 12.7 | – | 12.3 | – | 17.6 | – | – | – | 39.6 | – | > 100 | – | 48.6 | – | –
15 | Cc1cccc(C)c1NC(=O)CCCC(=O)C1CCC/C1=N\NC(=O)C(=O)NN (stereo not drawn) | – | > 100 | – | > 100 | – | > 100 | – | > 100 | – | > 100 | – | – | – | > 100 | – | > 100 | – | > 100 | – | –
16 | CS(=O)(=O)Nc1cc(-c2ccc3ncnc(Nc4ccc5c(cnn5Cc5ccc(F)cc5)c4)c3c2)cnc1Cl | 3.38 | 63.8 | 2.99 | > 100 | 1.96 | 6.02 | 1.41 | 3.17 | 0.435 | 2.75 | 1.53 | 41.4 | 0.441 | 2.92 | 3.02 | > 100 | – | – | 1.79 | 12.8
17 | Cc1c(C)c2ccc(OC/C=C3\CCC(=O)O3)cc2oc1=O | 16.9 | 31.9 | – | – | 16.4 | 48.9 | 18.3 | 33 | – | – | 15 | 28.8 | 11.9 | 26.7 | 16.5 | 34.8 | 6.1 | 40.9 | 10.2 | 23.7
18 | CC(C)[C@@H](COC(C)(C)C)N=CN1CCc2c([nH]c3ccccc23)C1 | – | > 100 | – | > 100 | – | > 100 | – | > 100 | – | > 100 | – | > 100 | – | – | – | > 100 | – | > 100 | – | > 100
19 | CC(=O)OC1C2(CC3N4C(=O)C5(CO)SSC4(CC31O)C(=O)N5C)OC(C)C(C)(C)C2=O (stereo not drawn) | 0.0592 | 0.231 | < 0.01 | 0.0225 | – | – | < 0.018 | 0.0538 | 0.0379 | – | 0.575 | 1.08 | 0.154 | – | < 0.0495 | 0.222 | < 0.0398 | – | 1.33 | 3.17
